{
  "source": "paper PMC3760508",
  "about": "(Journal of medicinal chemistry, 2009)",
  "key": {"cruzain": {"target": "cruzain (Trypanosoma cruzi, UniProt P25779)", "sequence (P25779 123-467)": "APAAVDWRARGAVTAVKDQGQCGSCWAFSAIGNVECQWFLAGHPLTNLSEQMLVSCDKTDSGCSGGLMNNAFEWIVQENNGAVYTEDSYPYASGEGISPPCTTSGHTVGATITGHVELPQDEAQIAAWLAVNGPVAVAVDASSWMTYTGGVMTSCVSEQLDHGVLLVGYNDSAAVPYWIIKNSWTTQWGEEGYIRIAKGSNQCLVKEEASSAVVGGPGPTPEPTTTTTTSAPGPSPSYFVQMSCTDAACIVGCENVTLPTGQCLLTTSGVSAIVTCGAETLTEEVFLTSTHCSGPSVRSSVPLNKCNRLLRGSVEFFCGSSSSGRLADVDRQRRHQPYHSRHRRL", "experiment": "biochemical", "format": "biochemical", "settings": "for change of cruzain IC50 between low and high detergent concentration: 0.001% vs 0.01% Triton X-100; for cruzain inhibition (in words): Figure 1 analogs"}, "particle": {"experiment": "particle", "format": "physicochemical", "settings": "for particles? lowest evaluated concentration at which particle formation was observed: flow cytometry, in some cases confirmed by DLS"}, "AmpC β-lactamase": {"target": "AmpC β-lactamase (Escherichia coli, UniProt P00811)", "sequence (P00811 20-377)": "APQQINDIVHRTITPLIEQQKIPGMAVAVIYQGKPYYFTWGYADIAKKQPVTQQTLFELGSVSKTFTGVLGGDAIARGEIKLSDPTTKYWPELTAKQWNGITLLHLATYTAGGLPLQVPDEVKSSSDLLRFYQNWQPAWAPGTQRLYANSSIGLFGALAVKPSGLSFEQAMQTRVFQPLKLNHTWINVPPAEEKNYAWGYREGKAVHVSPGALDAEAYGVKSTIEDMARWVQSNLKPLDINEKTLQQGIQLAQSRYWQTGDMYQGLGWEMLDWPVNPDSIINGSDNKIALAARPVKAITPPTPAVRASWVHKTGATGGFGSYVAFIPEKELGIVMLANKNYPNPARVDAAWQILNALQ", "experiment": "AmpC β-lactamase detergent-sensitive inhibition", "format": "biochemical", "settings": "reversal by 0.01% Triton"}, "[1]": {"settings": "high Triton (0.01% Triton X-100), 23 at 50 μM"}, "[2]": {"settings": "low Triton (0.001% Triton X-100), 23 at 5 μM, 1 at 25 μM"}},
  "data": [
    {"smiles": "Nc1ncccc1C(=O)OCC(=O)NC1CCCCCC1", "note": "[Compound 2]", "values": [
      {"measurement": "change of cruzain IC50 between low and high detergent concentration", "setting": "cruzain", "result": "essentially unaltered"},
      {"measurement": "mode of cruzain inhibition", "setting": "cruzain; [1]", "result": "competitive inhibitors"}
    ]},
    {"smiles": "CCN1CCC[C@H]1CNC(=O)c1nnc(-c2ccccc2N)o1", "note": "[Compound 18]", "values": [
      {"measurement": "particles? lowest evaluated concentration at which particle formation was observed", "setting": "particle", "result": ">200", "unit": "µM"}
    ]},
    {"smiles": "Cc1cc(NC(=O)c2nnc(-c3ccccc3N)o2)n[nH]1", "note": "[Compound 25]", "values": [
      {"measurement": "detergent-reversible inhibition of AmpC β-lactamase", "setting": "AmpC β-lactamase", "result": "the exception"}
    ]},
    {"smiles": "CCC(NC(=O)COC(=O)c1cccnc1N)c1ccc(Br)cc1", "note": "(stereo not shown) [Compound 3]", "values": [
      {"measurement": "change of cruzain IC50 between low and high detergent concentration", "setting": "cruzain", "result": "essentially unaltered"},
      {"measurement": "mode of cruzain inhibition", "setting": "cruzain; [1]", "result": "competitive inhibitors"}
    ]},
    {"smiles": "Nc1ncccc1C(=O)OCC(=O)Nc1cc(Cl)ccc1Cl", "note": "[Compound 1]", "values": [
      {"measurement": "change of cruzain IC50 between low and high detergent concentration", "setting": "cruzain", "result": "~ 3 fold"},
      {"measurement": "dependence of cruzain inhibition on incubation time", "setting": "cruzain; 0.01% Triton X-100", "result": "independent of incubation time"},
      {"measurement": "mode of cruzain inhibition", "setting": "cruzain; [1]", "result": "competitive inhibition"},
      {"measurement": "mode of cruzain inhibition", "setting": "cruzain; [2]", "result": "non-competitive"},
      {"measurement": "detergent-reversible inhibition of AmpC β-lactamase", "setting": "AmpC β-lactamase", "result": "found to inhibit AmpC, and its inhibition was reversed by 0.01% Triton"},
      {"measurement": "particles? lowest evaluated concentration at which particle formation was observed", "setting": "particle", "result": 25, "unit": "µM"}
    ]},
    {"smiles": "Cc1cccc(C(=O)OCC(=O)Nc2cc(Cl)ccc2Cl)c1", "note": "[Compound 5]", "values": [
      {"measurement": "cruzain inhibition (in words)", "setting": "cruzain", "result": "essentially inactive"}
    ]},
    {"smiles": "O=C(COC(=O)c1ccccn1)Nc1cc(Cl)ccc1Cl", "note": "[Compound 4]", "values": [
      {"measurement": "cruzain inhibition (in words)", "setting": "cruzain", "result": "essentially inactive"}
    ]},
    {"smiles": "Nc1ccccc1-c1nnc(C(=O)Nc2ccc3oc4c(c3c2)CCCC4)o1", "note": "[Compound 12]", "values": [
      {"measurement": "formation of colloidal aggregates (particles)", "setting": "particle; DLS and flow cytometry, 0.001% Triton X-100, relevant inhibitory concentrations", "result": "the exception"},
      {"measurement": "particles? lowest evaluated concentration at which particle formation was observed", "setting": "particle", "result": ">100", "unit": "µM"}
    ]},
    {"smiles": "Nc1ccccc1-c1nnc(C(=O)Nc2cc(-c3cccs3)[nH]n2)o1", "note": "[Compound 23]", "values": [
      {"measurement": "IC50", "setting": "cruzain", "result": 82.4, "unit": "µM"},
      {"measurement": "mode of cruzain inhibition", "setting": "cruzain; [1]", "result": "competitive"},
      {"measurement": "mode of cruzain inhibition", "setting": "cruzain; [2]", "result": "non-competitive"}
    ]}
  ]
}
